From patent US6288091A, “Antiherpes virus compounds and methods for their preparation and use” (Boehringer Ingelheim Ltd., priority 1999, dated 2001)
Where two headings read alike, the source gives them in different places.

How the values were obtained:
HSV-1 helicase-primase = molecular target: T1, HSV-1 helicase-primase (Human herpesvirus 1, UniProt P10189+P10236); assay: HSV-1 DNA-dependent ATPase assay (inhibition of HSV-1 helicase-primase); type: biochemical
T1 construct: made in house; host or cells: Sf21 insect cells triply infected with recombinant baculoviruses (UL5, UL8, UL52)
Outline: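 Holoenzyme (UL5/UL8/UL52) expressed in baculovirus-infected Sf21 cells and purified, used at 3 μg/mL with 4 mM ATP and 25 μM primed M13 ssDNA in HEPES pH 7.5, 5.5 mM MgCl2, 3.3% DMSO. Incubated 20 min at 34°. Released phosphate read by malachite green at 650 nm, and activity taken from net absorbance with versus without inhibitor.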

[1] = Inhibition of HCMV replication, plaque reduction assay (PRA, Hs-68 cells); type: cell-based, Human Cytomegalovirus (HCMV); conditions: human
Outline: (§1)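 Hs-68 monolayers (80–90% confluent) were infected with ~50 PFU HCMV AD169 for 2 h at 37°, then given compound in DMEM/5% inactivated FBS, refreshed after 4 days and kept 4 more days. Plaques were counted after formaldehyde fixation and crystal violet staining. EC50 derives from percent plaque reduction versus untreated wells.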

HCMV (strain AD169) = assay: as above; type: cell-based, Human Cytomegalovirus (HCMV); conditions: read-out: PRA CMV EC50
Outline: as §1

HSV-1 KOS = assay: Cutaneous HSV-1 infection in the SKH-1 hairless mouse model, oral administration; type: in vivo; conditions: Human alphaherpesvirus 1, Group 1 Table 1 entries, tid for five days, commencing three hours post infection, in 0.03 N aqueous HCl, read-out: ED50, reduction of viral pathology
Description: In addition to the above results, certain Group 1 compounds have been tested against cutaneous HSV-1 infection in the SKH-1 hairless mouse model (P. H. Lee et al., supra). In this instance, viral pathology was monitored using a subjective scoring system and infection was initiated by spreading a viral inoculum (HSV-1 KOS, 7.3×10^7 PFU) over punctured skin.
Still furthermore, oral doses of Entry No.29 of Group 1 at 50 mg/kg/day and 100 mg/kg/day were active in the preceding mouse model when treatment was initiated at 65 h post inoculation. Also, topical treatment of cutaneous HSV-2 infections, namely HG-52 or the acyclovir resistant HSV-2 strain VK-1 (C. S. Crumpacker, New Engl. J. Med., 1989, 320, 293) infections, in the mouse model with the above noted 3% w/w formulation of Entry No. 29 was therapeutically effective, producing a 58 to 72% reduction of viral pathology.

[2] = Group 1 Table 1 entries, read-out: Cytotoxic at this concentration (footnote *, PRA CMV)
[3] = Human betaherpesvirus 5, AD169, Hs68, Group 1 Table 1 entries
[4] = Group 1 Table 2 entries (Q = CH2)
[5] = Group 1 Table 2 entries, read-out: Cytotoxic at this concentration (footnote, PRA CMV)
[6] = Human betaherpesvirus 5, AD169, Hs68, Group 1 Table 2 entries

T1 sequence (P10192 whole entry): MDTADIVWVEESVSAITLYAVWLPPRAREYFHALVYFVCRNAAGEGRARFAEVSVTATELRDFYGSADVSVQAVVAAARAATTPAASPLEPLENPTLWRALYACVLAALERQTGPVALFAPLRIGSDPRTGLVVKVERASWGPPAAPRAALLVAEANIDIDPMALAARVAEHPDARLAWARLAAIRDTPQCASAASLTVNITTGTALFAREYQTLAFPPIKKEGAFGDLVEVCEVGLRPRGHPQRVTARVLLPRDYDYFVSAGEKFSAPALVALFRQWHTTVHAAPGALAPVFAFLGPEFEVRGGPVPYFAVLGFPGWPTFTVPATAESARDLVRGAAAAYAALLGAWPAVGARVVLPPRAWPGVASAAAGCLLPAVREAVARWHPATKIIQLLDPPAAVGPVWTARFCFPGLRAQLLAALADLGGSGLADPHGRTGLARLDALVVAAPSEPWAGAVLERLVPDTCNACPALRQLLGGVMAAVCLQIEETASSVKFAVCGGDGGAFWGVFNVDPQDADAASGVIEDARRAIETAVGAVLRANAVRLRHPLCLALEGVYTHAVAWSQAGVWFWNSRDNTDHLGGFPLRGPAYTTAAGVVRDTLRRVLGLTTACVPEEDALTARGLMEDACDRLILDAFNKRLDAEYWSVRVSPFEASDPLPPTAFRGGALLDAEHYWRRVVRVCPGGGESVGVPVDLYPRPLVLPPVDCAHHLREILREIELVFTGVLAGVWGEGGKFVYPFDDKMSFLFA
T1 sequence (P10236 whole entry): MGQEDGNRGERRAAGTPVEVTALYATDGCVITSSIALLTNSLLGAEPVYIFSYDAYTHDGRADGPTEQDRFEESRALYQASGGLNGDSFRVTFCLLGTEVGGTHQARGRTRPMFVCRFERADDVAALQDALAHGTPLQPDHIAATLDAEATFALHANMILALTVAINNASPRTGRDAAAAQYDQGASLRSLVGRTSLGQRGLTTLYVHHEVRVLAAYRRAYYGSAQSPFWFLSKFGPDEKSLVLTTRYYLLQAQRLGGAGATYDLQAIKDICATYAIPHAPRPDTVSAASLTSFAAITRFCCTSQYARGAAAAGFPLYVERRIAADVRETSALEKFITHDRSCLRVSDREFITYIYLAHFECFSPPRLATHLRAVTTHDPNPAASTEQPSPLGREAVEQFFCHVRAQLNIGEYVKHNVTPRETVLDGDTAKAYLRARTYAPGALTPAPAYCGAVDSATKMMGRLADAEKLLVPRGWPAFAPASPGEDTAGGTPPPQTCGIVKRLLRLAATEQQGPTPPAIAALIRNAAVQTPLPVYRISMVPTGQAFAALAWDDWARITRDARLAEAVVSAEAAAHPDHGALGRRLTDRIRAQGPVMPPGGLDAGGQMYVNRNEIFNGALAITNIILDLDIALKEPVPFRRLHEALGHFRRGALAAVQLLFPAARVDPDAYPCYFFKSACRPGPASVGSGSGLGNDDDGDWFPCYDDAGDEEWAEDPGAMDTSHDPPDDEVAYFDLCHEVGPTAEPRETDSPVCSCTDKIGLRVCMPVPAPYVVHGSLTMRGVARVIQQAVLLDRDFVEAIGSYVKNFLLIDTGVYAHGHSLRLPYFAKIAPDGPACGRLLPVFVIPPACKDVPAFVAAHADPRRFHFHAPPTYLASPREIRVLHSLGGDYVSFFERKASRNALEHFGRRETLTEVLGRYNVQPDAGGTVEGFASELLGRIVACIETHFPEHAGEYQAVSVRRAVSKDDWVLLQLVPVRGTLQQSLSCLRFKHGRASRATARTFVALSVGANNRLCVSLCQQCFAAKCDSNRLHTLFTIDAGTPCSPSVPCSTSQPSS
T1 sequence (P10189 whole entry): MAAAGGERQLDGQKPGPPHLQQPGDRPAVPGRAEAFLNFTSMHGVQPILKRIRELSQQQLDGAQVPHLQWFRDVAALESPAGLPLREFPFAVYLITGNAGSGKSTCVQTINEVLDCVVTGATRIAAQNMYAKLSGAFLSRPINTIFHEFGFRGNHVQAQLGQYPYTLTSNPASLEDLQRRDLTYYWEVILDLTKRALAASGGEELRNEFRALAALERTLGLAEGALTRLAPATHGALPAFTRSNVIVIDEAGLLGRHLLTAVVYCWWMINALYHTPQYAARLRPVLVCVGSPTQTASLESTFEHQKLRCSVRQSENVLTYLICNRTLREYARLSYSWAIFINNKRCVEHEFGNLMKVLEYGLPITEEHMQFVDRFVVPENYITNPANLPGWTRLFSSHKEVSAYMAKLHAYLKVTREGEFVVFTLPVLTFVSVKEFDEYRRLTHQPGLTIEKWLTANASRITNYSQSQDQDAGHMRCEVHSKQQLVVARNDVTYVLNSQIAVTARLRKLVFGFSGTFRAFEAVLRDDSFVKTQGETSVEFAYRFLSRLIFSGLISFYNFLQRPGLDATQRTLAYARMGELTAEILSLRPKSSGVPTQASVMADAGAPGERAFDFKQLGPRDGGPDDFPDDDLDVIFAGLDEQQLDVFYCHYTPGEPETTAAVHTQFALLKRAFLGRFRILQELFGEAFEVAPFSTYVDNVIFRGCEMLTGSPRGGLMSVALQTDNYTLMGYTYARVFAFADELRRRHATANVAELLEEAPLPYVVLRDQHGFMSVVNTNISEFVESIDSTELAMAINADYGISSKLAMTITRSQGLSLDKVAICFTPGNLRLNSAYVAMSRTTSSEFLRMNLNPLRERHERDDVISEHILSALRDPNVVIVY

## Nc1nc(-c2ccc(NC(=O)CNCCCc3ccccc3)cc2)cs1 [Example 3]
HSV-1 helicase-primase; Group 1 Table 1 entries
  IC50: 7.6 µM
[1]; [2]
  MCC at 192 h: 14 µM
HCMV (strain AD169); [3]
  EC50: > 14 µM

## Nc1nc(-c2ccc(NC(=O)CCNCc3cccc(F)c3)cc2)cs1 [Example 4]
HSV-1 helicase-primase; [4]
  IC50: 5.2 µM
[1]; [5]
  MCC at 192 h: 3.7 µM
HCMV (strain AD169); [6]
  EC50: > 3.7 µM

## Nc1nc(-c2ccc(NC(=O)CCN(Cc3ccccc3)C(=O)C3CCCCC3)cc2)cs1 [Example 8]
HSV-1 helicase-primase; [4]
  IC50: 1.7 µM
[1]; [5]
  MCC at 192 h: 13 µM
HCMV (strain AD169); [6]
  EC50: 13 µM

## C[C@H](NCC(=O)Nc1ccc(-c2csc(N)n2)cc1)c1ccccc1 [Example 10]
HSV-1 helicase-primase; Group 1 Table 1 entries
  IC50: 6.9 µM
[1]; [2]
  MCC at 192 h: 30 µM
HCMV (strain AD169); [3]
  EC50: > 30 µM

## Nc1nc(-c2ccc(NC(=O)CCNC3Cc4ccccc4C3)cc2)cs1 [Example 10]
HSV-1 helicase-primase; [4]
  IC50: 21 µM
[1]; [5]
  MCC at 192 h: 14 µM
HCMV (strain AD169); [6]
  EC50: 14 µM

## Nc1nc(-c2ccc(NC(=O)CCN(Cc3ccccc3)C(=O)OCc3ccccc3)cc2)cs1 [Example 16]
HSV-1 helicase-primase; [4]
  IC50: 1.8 µM
[1]; [5]
  MCC at 192 h: 8 µM
HCMV (strain AD169); [6]
  EC50: 8 µM

## CN(CC(=O)Nc1ccc(-c2csc(N)n2)cc1)C(=O)c1ccncc1 [Example 22]
HSV-1 helicase-primase; Group 1 Table 1 entries
  IC50: 5.9 µM
[1]; [2]
  MCC at 192 h: 110 µM
HCMV (strain AD169); [3]
  EC50: 110 µM

## Nc1nc(-c2ccc(NC(=O)CCNCC3CCCCC3)cc2)cs1 [Example 22]
HSV-1 helicase-primase; [4]
  IC50: 29 µM
[1]; [5]
  MCC at 192 h: 6 µM
HCMV (strain AD169); [6]
  EC50: > 6 µM

## CCCC(CCC)NCCC(=O)Nc1ccc(-c2csc(N)n2)cc1 [Example 23]
HSV-1 helicase-primase; [4]
  IC50: 45 µM
[1]; [5]
  MCC at 192 h: 9 µM
HCMV (strain AD169); [6]
  EC50: > 9 µM

## Nc1nc(-c2ccc(NC(=O)CN(Cc3ccccc3)C(=O)c3ccccn3)cc2)cs1 [Example 27]
HSV-1 helicase-primase; Group 1 Table 1 entries
  IC50: 1 µM
[1]; [2]
  MCC at 192 h: 36 µM
HCMV (strain AD169); [3]
  EC50: > 36 µM

## Nc1nc(-c2ccc(NC(=O)CN(Cc3ccccc3)C(=O)c3ccncc3)cc2)cs1 [Example 29]
HSV-1 helicase-primase; Group 1 Table 1 entries
  IC50: 0.24 µM
HCMV (strain AD169); [3]
  EC50: 27 µM
HSV-1 KOS
  ED50: 56 mg/kg

## Nc1nc(-c2ccc(NC(=O)CN(Cc3ccccc3)C(=O)C3CCCC3)cc2)cs1 [Example 36]
HSV-1 helicase-primase; Group 1 Table 1 entries
  IC50: 0.041 µM
HCMV (strain AD169); [3]
  EC50: 16 µM
HSV-1 KOS
  ED50: 51 mg/kg

## Nc1nc(-c2ccc(NC(=O)CN(Cc3ccncc3)C(=O)C3CCCCC3)cc2)cs1 [Example 49, N-{2-{{4-(2-amino-4-thiazolyl)phenyl}amino}-2-oxoethyl}-N-(4-pyridinylmethyl)cyclohexanecarboxamide]
HSV-1 helicase-primase; Group 1 Table 1 entries
  IC50: 0.037 µM
HCMV (strain AD169); [3]
  EC50: 23 µM
HSV-1 KOS
  ED50: 129 mg/kg

## C[C@@H](c1ccccc1)N(CC(=O)Nc1ccc(-c2csc(N)n2)cc1)C(=O)c1ccncc1 [Example 58]
HSV-1 helicase-primase; Group 1 Table 1 entries
  IC50: 0.19 µM
HCMV (strain AD169); [3]
  EC50: 30 µM
HSV-1 KOS
  ED50: 31 mg/kg

## Nc1nc(-c2ccc(NC(=O)CN(CC3CCCCC3)C(=O)C3CCCC3)cc2)cs1 [Example 63]
HSV-1 helicase-primase; Group 1 Table 1 entries
  IC50: 0.78 µM
[1]; [2]
  MCC at 192 h: 21 µM
HCMV (strain AD169); [3]
  EC50: > 21 µM

## CCCC(CCC)N(CC(=O)Nc1ccc(-c2csc(N)n2)cc1)C(=O)C1CCCCC1 [Example 82]
HSV-1 helicase-primase; Group 1 Table 1 entries
  IC50: 0.62 µM
[1]; [2]
  MCC at 192 h: 7 µM
HCMV (strain AD169); [3]
  EC50: 7 µM

## Nc1nc(-c2ccc(NC(=O)CN(Cc3ccccc3)S(=O)(=O)c3ccccc3)cc2)cs1 [Example 97]
HSV-1 helicase-primase; Group 1 Table 1 entries
  IC50: 0.31 µM
HCMV (strain AD169); [3]
  EC50: 15 µM

## CCC(CC)C(=O)N(CC(=O)Nc1ccc(-c2csc(N)n2)cc1)Cc1ccccc1 [Example 104]
HSV-1 helicase-primase; Group 1 Table 1 entries
  IC50: 0.078 µM
[1]; [2]
  MCC at 192 h: 18 µM
HCMV (strain AD169); [3]
  EC50: > 18 µM

## CN(C)CCN(CC(=O)Nc1ccc(-c2csc(N)n2)cc1)C(=O)C1CCCCC1 [Example 140]
HSV-1 helicase-primase; Group 1 Table 1 entries
  IC50: 48 µM
HCMV (strain AD169); [3]
  EC50: 29 µM
